Consider 20 compounds from patent US20080312220A1, “Oxadiazole Derivatives with Crth2 Receptor Activity” (priority 2005, published 2008).

One assay concerns the target T1, human CRTH2-Rluc (Homo sapiens, UniProt Q9Y5Y4).
T1 construct: expressed in transfected cells; host or cells: HEK293 cell clone stably expressing βarr2-GFP2 and CRTH2-Rluc
T1 sequence (Q9Y5Y4 1-395): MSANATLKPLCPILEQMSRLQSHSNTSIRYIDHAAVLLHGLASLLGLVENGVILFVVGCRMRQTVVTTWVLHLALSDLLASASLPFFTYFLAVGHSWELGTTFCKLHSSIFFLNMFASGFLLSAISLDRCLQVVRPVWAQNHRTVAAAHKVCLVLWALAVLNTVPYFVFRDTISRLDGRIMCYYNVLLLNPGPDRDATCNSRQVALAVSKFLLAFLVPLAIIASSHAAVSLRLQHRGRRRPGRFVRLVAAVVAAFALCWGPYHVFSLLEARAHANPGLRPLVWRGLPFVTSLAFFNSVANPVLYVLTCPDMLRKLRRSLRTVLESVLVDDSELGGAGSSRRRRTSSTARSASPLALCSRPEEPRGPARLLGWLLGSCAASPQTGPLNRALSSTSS
Kind of assay: Functional antagonist BRET assay (CRTH2-Rluc / GFP2-β-arrestin2 in HEK293 cells). The class given is cell-based. The settings on record: HEK293 cells stably expressing CRTH2-Rluc and GFP2-β-arr2, read-out: Antag. IC50. The text has this:
(§1) Generation/origin of the cDNA Constructs. The coding sequence of the human CRTH2 receptor (genbank accession no NM_004778) was amplified by PCR from a human hippocampus cDNA library and inserted into the pcDNA3.1(+) expression vector (invitrogen) via 5′ HindIII and 3′ EcoRI. To generate a CRTH2-Renilla luciferase (CRTH2-Rluc) fusion protein, the CRTH2 coding sequence without a STOP codon and Rluc were amplified, fused in frame by PCR and subcloned into the pcDNA3.1(+)Zeo expression vector (invitrogen). Human β-arrestin2 (β-arr2) N-terminally tagged with GFP^2 (βarr2-GFP^2) and Renilla luciferase were purchased from BioSignal Packard Inc, (Montreal, Canada). The sequence identity of the construct was verified by restriction endonuclease digests and sequencing in both directions on an ABI Prism (Applied Biosystems, Foster City, Calif.).
(§2) Cell Culture and Transfection. COS-7 cells were grown in Dulbecco's modified Eagle's medium (DMEM) 1885 supplemented with 10% fetal bovine serum, 100 units/ml penicillin, […], and kept at 37° C. in a 10% CO2 atmosphere. HEK293 cells were maintained in Minimum Essential medium (MEM) supplemented with 10% (v/v) heat inactivated fetal calf serum (HIFCS), 2 mM Glutamax™-I, 1% non essential amino acids (NEAA), 1% sodium pyruvate and 10 μg/ml gentamicin. For binding experiments, COS7 cells were transiently transfected with the CRTH2 receptor using a calcium phosphate-DNAcoprecipitation method with the addition of chloroquine (as described by Holst et al., 2001↓). To perform the functional Bioluminescence Resonance Energy Transfer (BRET) assays, a HEK293 cell clone stably expressing Parr2-GFP^2 and CRTH2-Rluc was generated (CRTH2-HEK293 cells).
BRET assay. Functional BRET assays were performed on HEK293 cells stably expressing human CRTH2-Rluc and GFP^2-β-arr2. Prior to their use in the BRET assay cells were detached and re-suspended in D-PBS with 1000 mg/L L-Glucose at a density of 2×10^6 cells/mL. DeepBlueC™ was diluted to 50 μM in D-PBS with 1000 mg/L L-Glucose (light sensitive). 100 μL of cell suspension was transferred to wells in a 96-well microplate (white OptiPlate) and placed in the Mithras LB 940 instrument (BERTHOLD TECHNOLOGIES, Bad Wildbad, Germany). 12 μL/well agonist was then injected by injector 1 and 10 μL/well DeepBlueC™ was injected simultaneously by injector 2. Five seconds after the injections the light output from the well was measured sequentially at 400 nm and 515 nm, and the BRET signal (mBRET ratio) was calculated by the ratio of the fluorescence emitted by GFP^2-β-arr2 (515 nm) over the light emitted by the receptor-Rluc (400 nm). Antagonists were added before placing the microplates into the Mithras LB 940 and allowed to incubate for 15 minutes prior to the addition of agonist and DeepBlueC™. Compounds were dissolved in DMSO and the final DMSO concentration was kept constant at 1% in the assay.
(§3) Curve analysis was performed with the GraphPadPrism software 3.0 (Graphpad Prism Inc., San Diego, USA) and IC50 values were calculated as a measure of the antagonistic potencies.
For orientation: Bioluminescence resonance energy transfer reports proximity on the nanometre scale.

A further assay addresses T2, human CRTH2 receptor (Homo sapiens, UniProt Q9Y5Y4).
T2 construct: expressed in transfected cells; host or cells: COS-7 cells, transient transfection (calcium phosphate)
T2 sequence (Q9Y5Y4 1-395): T1 sequence (Q9Y5Y4 1-395)
Kind of assay: Receptor binding assay, competition with [3H]PGD2 on whole transfected cells. The settings on record: competition with 0.1 nM [3H]PGD2, whole cells expressing CRTH2.
Text: as §1, §2
Binding assay. 24 h after transfection COS-7 cells were seeded into 96 well plates at a density of 30.000 cells/well. Competition binding experiments on whole cells were then performed about 18-24 h later using 0.1 nM [^3H]PGD2 (NEN, 172 Ci/mmol) in a binding buffer consisting of HBSS (GIBCO) and 10 mM HEPES. Competing ligands were diluted in DMSO which was kept constant at 1% (v/v) of the final incubation volume. Total and nonspecific binding were determined in the absence and presence of 10 μM PGD2. Binding reactions were routinely conducted for 3 h at 4° C. and terminated by 2 washes (100 μl each) with ice cold binding buffer. Radioactivity was determined by liquid scintillation counting in a TOPCOUNTER (Packard) following over night incubation in Microscint 20. Stable HEK293 cells were seeded at a density of 30.000 cells/well 18-24 h prior to the binding assay which was performed essentially as described for COS7 cells above. Determinations were made in duplicates.
as §3

In general, IC50 refers to the concentration needed to halve the response being measured. For the compound `O=C(O)COc1ccc(Br)cc1-c1nc(C(c2ccccc2)N2CCOCC2)no1` (stereo not shown) [Example D4], the half-maximal inhibitory concentration (IC50) on human CRTH2-Rluc and on human CRTH2 receptor was < 500 nM in each case.

As for `O=C(O)COc1ccc(Br)cc1-c1nc(C2(c3ccccc3)CCN(S(=O)(=O)C3CC3)CC2)no1` [Example D15, {4-Bromo-2-[3-(1-cyclopropanesulfonyl-4-phenyl-piperidin-4-yl)-[1,2,4]oxadiazol-5-yl]-phenoxy}-acetic acid], the IC50 on human CRTH2-Rluc and at human CRTH2 receptor was < 500 nM throughout.

With `O=C(O)COc1ccc(Br)cc1-c1nc(C2(c3ccccc3)CCCCC2)no1` [Example D3, {4-Bromo-2-[3-(1-phenyl-cyclohexyl)-[1,2,4]oxadiazol-5-yl]-phenoxy}-acetic acid], the IC50 at human CRTH2-Rluc and at human CRTH2 receptor was < 500 nM each time.

`O=C(O)COc1ccc(Br)cc1-c1nc(C2(c3ccc(Cl)cc3Cl)CC2)no1` [Example D9, (4-Bromo-2-{3-[1-(2,4-dichloro-phenyl)-cyclopropyl]-[1,2,4]oxadiazol-5-yl}-phenoxy)-acetic acid]: the IC50 on human CRTH2-Rluc and at human CRTH2 receptor was < 500 nM each time.

`CC(=O)N1CCC(c2ccccc2)(c2noc(-c3cc(Br)ccc3OCC(=O)O)n2)CC1` [Example D2, {2-[3-(1-Acetyl-4-phenyl-piperidin-4-yl)-[1,2,4]oxadiazol-5-yl]-4-bromo-phenoxy}-acetic acid]: the IC50 on human CRTH2-Rluc and on human CRTH2 receptor was < 500 nM in each case.

`O=C(O)COc1ccc(Br)cc1-c1nc(C2(c3ccccc3)CCN(C(=O)C3CC3)CC2)no1` [Example D12, {4-Bromo-2-[3-(1-cyclopropanecarbonyl-4-phenyl-piperidin-4-yl)-[1,2,4]oxadiazol-5-yl]-phenoxy}-acetic acid]: the IC50 at human CRTH2-Rluc and on human CRTH2 receptor was < 500 nM each time.

As to `CC(C)C(=O)N1CCC(c2ccccc2)(c2noc(-c3cc(Br)ccc3OCC(=O)O)n2)CC1` [Example D8, {4-Bromo-2-[3-(1-isobutyryl-4-phenyl-piperidin-4-yl)-[1,2,4]oxadiazol-5-yl]-phenoxy}-acetic acid], the IC50 on human CRTH2-Rluc and at human CRTH2 receptor was < 500 nM throughout.

For `O=C(O)COc1ccc(Br)cc1-c1nc(C2(c3ccccc3)CC2)no1` [Example D1, {4-Bromo-2-[3-(1-phenylcyclopropyl)-[1,2,4]oxadiazol-5-yl]phenoxy}acetic acid], the IC50 on human CRTH2-Rluc and at human CRTH2 receptor was < 500 nM in each case.

Turning to `CS(=O)(=O)N1CCC(c2ccc(F)cc2)(c2noc(-c3cc(Br)ccc3OCC(=O)O)n2)CC1` [Example D19, (4-Bromo-2-{3-[4-(4-fluoro-phenyl)-1-methanesulfonyl-piperidin-4-yl]-[1,2,4]oxadiazol-5-yl}-phenoxy)-acetic acid], the IC50 at human CRTH2-Rluc and at human CRTH2 receptor was < 500 nM each time.

Consider `COC(=O)N1CCC(c2ccccc2)(c2noc(-c3cc(Br)ccc3OCC(=O)O)n2)CC1` [Example D16, 4-[5-(5-Bromo-2-carboxymethoxy-phenyl)-[1,2,4]oxadiazol-3-yl]-4-phenyl-piperidine-1-carboxylic acid methyl ester], for which the IC50 at human CRTH2-Rluc and at human CRTH2 receptor was < 500 nM each time.

For `O=C(O)COc1ccc(Br)cc1-c1nc(C2(c3ccccc3)CCNCC2)no1` [Example D5, {4-Bromo-2-[3-(4-phenyl-piperidin-4-yl)-[1,2,4]oxadiazol-5-yl]-phenoxy}-acetic acid], the results for the IC50 at human CRTH2-Rluc and at human CRTH2 receptor were 500 to 5000 nM and < 500 nM, respectively.

With `O=C(O)COc1ccc(Br)cc1-c1nc(C2(c3c(Cl)cccc3Cl)CC2)no1` [Example D13, (4-Bromo-2-{3-[1-(2,6-dichloro-phenyl)-cyclopropyl]-[1,2,4]oxadiazol-5-yl}-phenoxy)-acetic acid], the IC50 on human CRTH2-Rluc and on human CRTH2 receptor was < 500 nM throughout.

Consider `O=C(O)COc1ccc(Br)cc1-c1nc(C(c2ccc(F)cc2)N2CCS(=O)(=O)CC2)no1` (stereo not shown) [Example D20, (4-Bromo-2-{3-[(1,1-dioxo-1lambda*6*-thiomorpholin-4-yl)-(4-fluoro-phenyl)-methyl]-[1,2,4]oxadiazol-5-yl}-phenoxy)-acetic acid], for which the 50% inhibitory concentration (IC50) at human CRTH2-Rluc and at human CRTH2 receptor was < 500 nM each time.

Regarding `CCC(=O)N1CCC(c2ccccc2)(c2noc(-c3cc(Br)ccc3OCC(=O)O)n2)CC1` [Example D7, {4-Bromo-2-[3-(4-phenyl-1-propionyl-piperidin-4-yl)-[1,2,4]oxadiazol-5-yl]-phenoxy}-acetic acid], the IC50 at human CRTH2-Rluc and at human CRTH2 receptor was < 500 nM each time.

In the case of `O=C(O)COc1ccc(Br)cc1-c1nc(C2(c3ccccc3)CCN(C(=O)CO)CC2)no1` [Example D18, (4-Bromo-2-{3-[1-(2-hydroxy-acetyl)-4-phenyl-piperidin-4-yl]-[1,2,4]oxadiazol-5-yl}-phenoxy)-acetic acid], the IC50 at human CRTH2-Rluc and on human CRTH2 receptor was < 500 nM throughout.

With `CS(=O)(=O)N1CCC(c2ccccc2)(c2noc(-c3cc(Br)ccc3OCC(=O)O)n2)CC1` [Example D10, {4-Bromo-2-[3-(1-methanesulfonyl-4-phenyl-piperidin-4-yl)-[1,2,4]oxadiazol-5-yl]-phenoxy}-acetic acid], the IC50 on human CRTH2-Rluc and on human CRTH2 receptor was < 500 nM each time.

Regarding `CN1CCC(c2ccccc2)(c2noc(-c3cc(Br)ccc3OCC(=O)O)n2)CC1` [Example D11, {4-Bromo-2-[3-(1-methyl-4-phenyl-piperidin-4-yl)-[1,2,4]oxadiazol-5-yl]-phenoxy}-acetic acid], the IC50 on human CRTH2-Rluc and at human CRTH2 receptor was < 500 nM throughout.

On to `O=C(O)COc1ccc(Br)cc1-c1nc(C2(c3ccc(F)cc3)CC2)no1` [Example D6, (4-Bromo-2-{3-[1-(4-fluoro-phenyl)-cyclopropyl]-[1,2,4]oxadiazol-5-yl}-phenoxy)-acetic acid], for which the half-inhibitory concentration (IC50) on human CRTH2-Rluc and at human CRTH2 receptor was < 500 nM throughout.

On to `CC(=O)OCC(=O)N1CCC(c2ccccc2)(c2noc(-c3cc(Br)ccc3OCC(=O)O)n2)CC1` [Example D17, (2-{3-[1-(2-Acetoxy-acetyl)-4-phenyl-piperidin-4-yl]-[1,2,4]oxadiazol-5-yl}-4-bromo-phenoxy)-acetic acid], for which the IC50 at human CRTH2-Rluc and on human CRTH2 receptor was < 500 nM in each case.

For `C[C@H](Oc1ccc(Br)cc1-c1nc(C2(c3ccc(F)cc3)CC2)no1)C(=O)O` [Example D21, (S)-2-(4-Bromo-2-{3-[1-(4-fluoro-phenyl)-cyclopropyl]-[1,2,4]oxadiazol-5-yl}-phenoxy)-propionic acid], the IC50 on human CRTH2-Rluc and at human CRTH2 receptor was < 500 nM each time.
